# Reference: patent US4501734A, “Promotion of absorption of drugs administered through the alimentary system” (priority 1981, dated 1985)
# How the values were obtained:
# duodenum mucosa = assay: Observation of the duodenum employed in the experiment for mucosa damage; type: in vivo; conditions: rat duodenum employed in the experiment
# Method: (§1) Experimental method A was repeated except that saponins A, B and C were respectively used in a concentration of 5 mg/liter in place of the galenical extract in a solution to be administered.
# Examples according to the above experimental method are shown in the following Examples 6, 7 and 8. […] This may be ascribed to low acute toxicity of the drug absorption promoter of the present invention, as can readily be understood from the fact that the galenicals used in the present invention have been widely accepted as herb medicines or the like.
# [1] = Ampicillin blood level after injection with galenical extract or isolated saponin into rat duodenal loop (Experimental method A); conditions: in vivo
# Method: Rats weighing 180 to 220 g were anesthetized with 30 mg/kg of pentobarbital sodium and fixed by supination on a water bed made of a metal through which water regulated at a constant temperature of 39° C. was circulated. A duodenal loop of 10 cm length was prepared in a conventional manner with the point 1 cm under the pyloric part of the stomach as the starting point. […] The rats were bled from jugular veins 10, 20, 40, 60, 90, 120, 180 and 240 minutes after injection and activity concentration in the blood in each case was measured according to biological assay.
# That is, according to The Japan Antibiotic Drug Standards, using Bacillus subtilis as test microorganism, cultivation assay was performed by the paper disc method at 37° C. for 15 to 20 hours.
# The composition of the solution had the following composition:
# Galenical extract: 2 mg/ml-20 mg/ml
# as §1
# [2] = Ampicillin blood level after administration with galenical extract by stomach probe (Experimental method B); type: in vivo; conditions: rat
# Method: Rats weighing 200 to 230 g under anesthesia with ether were intubated with polyethylene tube (PE-10) at the femoral artery with ligation. The other end of PE-10 was passed subcutaneously to be led to the cervicodorsal part, at which it was drawn out of the skin and fixed with capping. After restoration of the vulnus at the operated portion (about 24 hours), each rat was provided for the experiment.
# The test microorganism used was Bacillus subtilis, and the assay was performed by the paper disc method according to The Japan Antibiotic Drug Standards.
# [3] = Ampicillin blood level after suppository with saponin A, B or C (suppository tests); type: in vivo; conditions: rat
# Method: The effectiveness of the saponins A, B and C when they were formulated into suppositories was tested in a method similar to the above Experimental method A.
# Thus, rats weighing 180 to 220 g were anesthetized with 30 mg/kg of pentobarbital sodium and fixed by supination on a water bed made of a metal through which water regulated at a constant temperature of 39° C. was circulated. A suppository in a proportion of 1 g/kg of body weight of the rat was inserted through the anus and pushed by a glass bar until it reached the connecting point of the pubes.
# The suppositories tested had the following compositions:
# Saponin A, B or C: 0.5-2 mg/kg-rat, and
# Vehicle*: remainder for giving 1 mg of suppository/kg-rat.
# *Witepsol® produced by Dynamit Novel A.G.
# Thus, the assay was performed by the paper disc method according to The Japan Antibiotic Drug Standards using Bacillus subtilis as the test microorganism.
compound,measurement,setting,value
"C[C@@H]1O[C@@H](O[C@H]2[C@H](O[C@H]3CC[C@@]4(C)[C@@H](CC[C@]5(C)[C@@H]4CC=C4[C@@H]6CC(C)(C)CC[C@]6(C(=O)O)CC[C@]45C)[C@]3(C)CO)OC[C@H](O)[C@@H]2O)[C@H](O)[C@H](O[C@@H]2OC[C@H](O)[C@H](O)[C@H]2O)[C@H]1O [Saponin A, 3-O-[α-L-arabinopyranosyl-(1→3)-α-L-rhamnopyranosyl-(1→2) -α-L-arabinopyranosyl]-hederagenin]",damage of mucosa or abnormality such as hemorrhagic spot of the duodenum,duodenum mucosa,no damage of mucosa (e.g. mucosa ablation) or abnormality such as hemorrhagic spot
"C[C@@H]1O[C@@H](O[C@H]2[C@H](O[C@H]3CC[C@@]4(C)[C@@H](CC[C@]5(C)[C@@H]4CC=C4[C@@H]6CC(C)(C)CC[C@]6(C(=O)O)CC[C@]45C)[C@]3(C)CO)OC[C@H](O)[C@@H]2O)[C@H](O)[C@H](O[C@@H]2OC[C@@H](O)[C@H](O)[C@H]2O)[C@H]1O [Saponin B, 3-O-[β-D-xylopyranosyl-(1→3)-α-L-rhamnopyranosyl-(1→2)-α-L-arabinopyranosyl]-hederagenin]",damage of mucosa or abnormality such as hemorrhagic spot of the duodenum,duodenum mucosa,no damage of mucosa (e.g. mucosa ablation) or abnormality such as hemorrhagic spot
"C[C@@H]1O[C@@H](O[C@H]2[C@H](O[C@H]3CC[C@@]4(C)[C@@H](CC[C@]5(C)[C@@H]4CC=C4[C@@H]6CC(C)(C)CC[C@]6(C(=O)O)CC[C@]45C)[C@]3(C)CO)OC[C@H](O)[C@@H]2O)[C@H](O)[C@H](O[C@@H]2O[C@@H](CO)[C@H](O)[C@H]2O)[C@H]1O [Saponin C, 3-O-[α-L-arabinofuranosyl-(1→3)-α-L-rhamnopyranosyl-(1→2)-α-L-arabinopyranosyl]-hederagenin]",damage of mucosa or abnormality such as hemorrhagic spot of the duodenum,duodenum mucosa,no damage of mucosa (e.g. mucosa ablation) or abnormality such as hemorrhagic spot
CC1(C)S[C@@H]2[C@H](NC(=O)[C@H](N)c3ccccc3)C(=O)N2[C@H]1C(=O)O [ampicillin sodium],"Concentration in Blood, 20 min. (Control)",[1]; 20 min,0.89 ± 0.07 μg titer/ml
same,"Concentration in Blood, 40 min. (Control)",[1]; 40 min,1.1 μg titer/ml
same,"Concentration in Blood, 240 min. (Control)",[1]; 4 h,0.5 μg titer/ml
same,concentration at 10 min,"[1]; Concentration in Blood, 10 min. (Control)",600 ng/mL
same,concentration at 40 min,"[1]; Concentration in Blood, 40 min. (Control)",1100 ng/mL
same,concentration at 1 h,"[1]; Concentration in Blood, 60 min. (Control)",1200 ng/mL
same,concentration at 3 h,"[1]; Concentration in Blood, 180 min. (Control)",500 ng/mL
same,concentration at 4 h,"[1]; Concentration in Blood, 240 min. (Control)",500 ng/mL
same,"Concentration in Blood, 10 min. (- Control)","[2]; in vivo, po, 25 mg/kg, 10 min",0.3 μg titer/ml
same,"Concentration in Blood, 20 min. (- Control)","[2]; in vivo, po, 25 mg/kg, 20 min",0.6 μg titer/ml
same,"Concentration in Blood, 40 min. (- Control)","[2]; in vivo, po, 25 mg/kg, 40 min",1.3 μg titer/ml
same,"Concentration in Blood, 60 min. (- Control)","[2]; in vivo, po, 25 mg/kg, 1 h",0.5 μg titer/ml
same,concentration at 10 min,"[2]; in vivo, po, 25 mg/kg, Concentration in Blood, 10 min. (- Control)",400 ng/mL
same,concentration at 20 min,"[2]; in vivo, po, 25 mg/kg, Concentration in Blood, 20 min. (- Control)",800 ng/mL
same,concentration at 40 min,"[2]; in vivo, po, 25 mg/kg, Concentration in Blood, 40 min. (- Control)",1200 ng/mL
same,concentration at 1 h,"[2]; in vivo, po, 25 mg/kg, Concentration in Blood, 60 min. (- Control)",800 ng/mL
same,concentration at […],"[2]; in vivo, po, 25 mg/kg, Concentration in Blood, 90 min. (- Control)",300 ng/mL
same,"Concentration in Blood, 90 min. (- Control)","[2]; stomach probe, ampicillin sodium without extract (Control), 90 min, tr.: trace",tr.
same,"Concentration in Blood, 120 min. (- Control)","[2]; stomach probe, ampicillin sodium without extract (Control), 120 min, tr.: trace",tr.
same,"Concentration in Blood, 180 min. (- Control)","[2]; stomach probe, ampicillin sodium without extract (Control), 180 min, tr.: trace",tr.
same,"Concentration in Blood, 240 min. (- Control)","[2]; stomach probe, ampicillin sodium without extract (Control), 240 min, tr.: trace",tr.
same,concentration at 5 min,"[3]; in vivo, 50 mg/kg",3120 ± 1660 ng/mL
same,concentration at 10 min,"[3]; in vivo, 50 mg/kg",3980 ± 1890 ng/mL
same,concentration at 35 min,"[3]; in vivo, 50 mg/kg",1910 ± 890 ng/mL
same,concentration at 1 h,"[3]; in vivo, 50 mg/kg",930 ± 540 ng/mL
same,"Concentration in Blood, 100 min.","[3]; suppository, ampicillin sodium 50 mg/kg, 100 min (Table 8A, upper part)",trace
